{
  "source": "patent US20240240226A1",
  "about": "“FLUOROGENIC ASSAY FOR RAPID SCREENING OF BACTERIAL BETA-LACTAMASE ACTIVITY” (The Board of Trustees of the Leland Stanford Junior …, priority 2021, published 2024)",
  "key": {"[1]": {"system": "E. coli", "assay": "Two-step filtration CDA/H2O2 urine assay, negative control E. coli", "format": "cell-based", "details": "E. coli without β-lactamase, concentrated from urine", "description": "FIG. 4 illustrates the detection of lactam-resistant bacteria in urine samples. a) Illustration of the workflow in bacteria isolation and concentration from a urine sample for detection. The sample is first filtrated by a 5-μm filter to trap cells and large debris followed by a 0.22-μm filter to trap bacteria. The 0.22-μm filter is washed once before PBS/H2O2 (1 mM) is directed through the 0.22-μm filter in the opposite direction with a new syringe to recover the concentrated bacteria for detection in a plate reader. b) Longitudinal monitoring of fluorescence enhancement with CDA and concentrated E. coli, K. pneumoniae, K. pneumoniae/KPC, E. coli/TEM-1, E. coli/IMP-1, E. coli/KPC-3, E. cloacae/IMP, S. marcescens/SME, and E. coli/OXA-48 in the presence of H2O2 (1 mM). Star* indicate clinical isolates. The study was duplicated at room temperature with PBS as the buffer. The signal of CDA alone in PBS containing H2O2 (1 mM) was subtracted and the absolute values were plotted. The working concentration of CDA was 10 μM. Data were collected on a Tecan Safire microplate reader with excitation at 570 nm and emission at 600 nm. A.U. indicates arbitrary units. […]"}, "[2]": {"system": "β-lactamase producing bacteria", "assay": "Two-step filtration CDA/H2O2 assay of bacteria in synthetic urine", "format": "cell-based, E. coli, K. pneumoniae, E. cloacae, S. marcescens", "details": "for bacteria concentration in urine detectable: two-step filtration, 250-fold enrichment, H2O2 1 mM", "description": "FIG. 4 illustrates the detection of lactam-resistant bacteria in urine samples. a) Illustration of the workflow in bacteria isolation and concentration from a urine sample for detection. The sample is first filtrated by a 5-μm filter to trap cells and large debris followed by a 0.22-μm filter to trap bacteria. The 0.22-μm filter is washed once before PBS/H2O2 (1 mM) is directed through the 0.22-μm filter in the opposite direction with a new syringe to recover the concentrated bacteria for detection in a plate reader. b) Longitudinal monitoring of fluorescence enhancement with CDA and concentrated E. coli, K. pneumoniae, K. pneumoniae/KPC, E. coli/TEM-1, E. coli/IMP-1, E. coli/KPC-3, E. cloacae/IMP, S. marcescens/SME, and E. coli/OXA-48 in the presence of H2O2 (1 mM). Star* indicate clinical isolates. The study was duplicated at room temperature with PBS as the buffer. The signal of CDA alone in PBS containing H2O2 (1 mM) was subtracted and the absolute values were plotted. The working concentration of CDA was 10 μM. Data were collected on a Tecan Safire microplate reader with excitation at 570 nm and emission at 600 nm. A.U. indicates arbitrary units.\nTo develop an easy-to-use, point-of-care assay for screening cephalosporin and carbapenem resistance, a simple two-step filtration method was employed (FIG. 26) to prepare and concentrate pathogenic bacteria, similar to a procedure applied for improving culture-based AST previously (Avesar et al., Procs. Nat. Acad. Sci. U.S.A, 2017, 114, E5787-E5795). […] The 5-micron filter would trap particles including cells and large debris, and bacteria would be collected by the 0.22-micron filter and washed by PBS. A reverse elution with PBS containing 1 mM H2O2 allowed immediate high-throughput analysis by a plate reader in a 96-well plate precoated with CDA. […] 50 mL of synthetic urine spiked with bacteria could be concentrated to approximately 200 μL ready-to-use suspension within a few minutes; polypropylene filters recover bacteria more efficiently (>90%) than commonly used nylon filters (FIG. 27). […]"}, "[3]": {"system": "E. coli/KPC-3", "assay": "CDA/H2O2 detection of live E. coli expressing KPC-3 carbapenemase", "format": "cell-based", "details": "CDA 10 μM, H2O2 1 mM, room temperature", "description": "FIG. 23 illustrates the fluorescence enhancement of CDA incubated with different concentrations of E. coli expressing KPC-3 carbapenemase in PBS at room temperature; CDA, 10 μM, and H2O2, 1 mM. The signal of CDA in H2O2 was subtracted and the absolute values were plotted. Data were collected on a Tecan Safire microplate reader with excitation at 570 nm and emission at 600 nm. A.U. indicates arbitrary units.\nFactoring the 100 μL assay volume, as low as 100 bacteria in one 96 well were detectable with the assay. A concentration of H2O2 at 1-2 mM efficiently oxidized the processed CDA to resorufin inside E. coli. Next, the assay was used to detect E. coli/IMP-1 and E. coli/KPC-3 (FIGS. 3e and 23). E. coli/IMP-1 was detected at […] within 2 hours, and E. coli/KPC-3 could be reliably detected at around 10^5-10^6 c.f.u./mL.\nBacteria growth and assay: E. coli (BL21 or TOP10) transformed to express TEM-1 Bla, IMP-1, and KPC3 were grown in LB medium and induced with 0.2% arabinose for 6-8 h at 30° C., 205 rpm. Colony forming units per milliliter (c.f.u./mL) were determined by measuring the UV absorbance at OD600.\nFor CDA incubation, 10 μM working solution was prepared freshly by diluting stock solution (1 mM in pure DMSO) in PBS (pH 7.05). A light-safe tube or foil wrap was used to prevent photobleaching."}},
  "note": "Values joined by “and” are separate entries in the source; they are usually repeats but may differ in a detail not shown here. Equal values may be shown once.",
  "data": [
    {"smiles": "CC(=O)Oc1ccc2c(c1)Oc1cc(OC(C)=O)ccc1N2C(=O)OCc1ccc(SCC2=C(C(=O)O)N3C(=O)[C@@H](NC(=O)Cc4ccccc4)[C@H]3SC2)cc1", "note": "[CDA, 3-(((4-(((3,7-diacetoxy-10H-phenoxazine-10-carbonyl)oxy)methyl)phenyl)thio)methyl)-8-oxo-7-(2-phenylacetamido)-5-thia-1-azabicyclo[4.2.0]oct-2-ene-2-carboxylic acid]", "values": [
      {"measurement": "fluorescent signal of negative control", "setting": "[1]", "result": "slightly increased signal"},
      {"measurement": "fluorescent signal over time", "setting": "[2]; all β-lactamase producing bacteria, after 250-fold enrichment", "result": "time dependent increase of fluorescent signal"},
      {"measurement": "bacteria concentration in urine detectable", "setting": "[2]; within 1 hour", "result": "10^5 c.f.u./mL"},
      {"measurement": "bacteria concentration in urine detectable", "setting": "[2]; within 2 hours, room temperature", "result": "10^3 c.f.u./mL and 10^4 c.f.u./mL"},
      {"measurement": "bacteria concentration reliably detected", "setting": "[3]", "result": "10^5-10^6 c.f.u./mL"}
    ]}
  ]
}
